The assay deals with LPS-induced TNF-α in human whole blood. Nature of the assay: Persistence of compounds in human whole blood (preincubation, then LPS challenge, cytokine assay). The class given is cell-based. The following applies: average of 7 separate experiments in triplicate, FIG. 3. How it is done: FIG. 2 depicts the general scheme used to analyze antagonistic efficacy of drug after incubation in whole blood for various times.
Although some of the compounds of this invention are not rapidly removed from the circulation, their activity diminishes with a half-life of 1-3 hours. To maintain antagonistic efficacy, this rapid deactivation may require continuous administration. The study of this deactivation has led to the development of an assay to measure in vitro deactivation of drugs in human whole blood. This is done by preincubating lipid A antagonists with blood for various periods of time followed by addition of the LPS “challenge,” as is described above, incubation for three hours, and assay for released cytokines.

This note sets out measurements from patent publication US6683063B2, “Prevention and treatment of pulmonary bacterial infection or symptomatic pulmonary exposure to endotoxin by inhalation of antiendotoxin drugs” (Eisai Co., Ltd., priority 1995, dated 2004).

Each structure is given as a SMILES string.

Regarding `CCCCCCCCCCCC(=O)CC(=O)N[C@H]1[C@@H](OP(=O)(O)O)OC(CO[C@@H]2O[C@H](COC)[C@@H](OP(=O)(O)O)C(OCCC(CCCCCCC)OC(=O)CCC/C=C/C(C)CCCC)[C@H]2NC(=O)CC(=O)CCCCCCCCCCC)[C@@H](O)[C@@H]1OCC[C@H](O)CCCCCCC` (stereo partly shown) [Compound B531], the “persistence of LPS-antagonist activity (inhibition of TNF-α) versus time of preincubation” value is recorded as “loses activity with increasing time of preincubation”.
